The results in this text go back to patent US8680100B2, “Sulfonylhydrazide compounds for treating proliferative disorders” (Synta Pharmaceuticals Corp., priority 2008, dated 2014).

By EC50 is commonly meant the midpoint of the concentration-response curve. A high value points to weaker potency.

For this assay, the system named is HSP70. The assay can be described thus: Hsp70 Activity Essay (HSP70 ELISA on lysates of MDA435 cells). Type of assay: cell-based. The following applies: concentration that increases HSP70 to 50% of maximum increase by N′1,N′3-dimethyl-N′1,N′3-di(phenylcarbonothioyl)malonohydrazide. On the procedure:
Each well was plated with MDA435 cells using DMEM 10% FBS Phenol-red free medium 2.5 k/well and incubated in a 37° C./5% CO2 incubator for a minimum of 6 hours to obtain good cell adherence.
Dilutions of each test compound were prepared in DMSO and DMEM 10% FBS Phenol-red free medium. The final concentration in each well was 1250 nM, 125 nM, 12.5 nM or 1.25 nM of test compound and 0.25% DMSO. 0.25% DMSO was used as a negative control. Lysis buffer (any lysis buffer suitable for use in the Assay Designs kit, e.g., such as that described in the kit instructions) was then added (amount used is one quarter of the volume already present in each plate) and the mixtures were then shaken for 10 minutes.
150 μL of “Can Get Signal” Immunoreaction Enhancer Solution (Solution 1 for primary antibody, TOYOBO, Catalogue No. NKB-101) were added to each of a series of ELISA plates. The ELISA plates were obtained from the HSP70 ELISA Kit (catalogue number EKS-700B) purchased from Assay Designs (Ann Arbor, Mich.). After the cells were lysed, 50 μL of lysate were taken from each well and added to an ELISA plate, resulting in a 4 fold dilution of the lysate (50 μL of lysate and 150 μL of Can Get Signal solution). The plates were covered with adhesive tape and incubated overnight at 4° C.;
In the morning, the liquid was aspirated from all wells and 400 μL of Washing Buffer made from 20× concentrate provided in the ELISA Kit and distilled water were added and then removed by aspiration. The addition of Washing Buffer and aspiration was repeated four times. After the fourth wash, the plate were inverted to a paper towel and carefully patted dry. 100 μL of HSP70 antibody provided in ELISA Kit were added to each well. Each well was covered with adhesive tape and incubated for one hour at room temperature. Washing Buffer was then added followed by removal with aspiration. The addition of Washing Buffer and aspiration was repeated four times, after which the plates were inverted and patted dry. 100 μL of HSP70 conjugate (provided in the ELISA Kit) were added to the wells. Each well was then covered with adhesive tape and incubated for one hour at room temperature. Washing Buffer was then added followed by removal with aspiration. The addition of Washing Buffer and aspiration was repeated four times, after which the plates were inverted and patted dry.
100 μL of the TMB Substrate (obtained from the ELISA Kit) were added to the wells (color development was visible in 1 minute). The wells were incubated until saturated color development (usually 5-15 minutes). Stop Solution 2 (provided in the ELISA Kit) was added in the same order TMB Substrate was added. The OD450 was then obtained using a plate reader. The EC50 for the compounds was calculated using N′^1,N′^3-dimethyl-N′^1,N′^3-di(phenylcarbonothioyl)malonohydrazide on the same plate as a control (concentration that increases HSP70 to 50% of maximum increase by N′^1,N′^3-dimethyl-N′^1,N′^3-di(phenylcarbonothioyl)malonohydrazide). The EC50 for each of the compounds tested is shown in example 1.

`CN(NS(=O)(=O)CC(=O)NN(C)C(=S)N1CCCCC1)C(=S)c1ccccc1` [Compound 54, N′-methyl-2-(2-methyl-2-(piperidine-1-carbonothioyl)hydrazinyl)-2-oxo-N′-(phenylcarbonothioyl)ethane-sulfonohydrazide] registered an EC50 of 108 nM.
`CN(NC(=O)CS(=O)(=O)NN(C)C(=S)c1ccsc1)C(=S)c1ccccc1` [Compound 57, N′-methyl-2-(2-methyl-2-(phenylcarbonothioyl)hydrazinyl)-2-oxo-N′-(thiophene-3-carbonothioyl)ethanesulfono-hydrazide]: the EC50 came to 77 nM.
`CN(NC(=O)CS(=O)(=O)NN(C)C(=S)c1ccccc1)C(=S)c1ccsc1` [Compound 58, N′-methyl-2-(2-methyl-2-(thiophene-3-carbonothioyl)hydrazinyl)-2-oxo-N′-(phenylcarbonothioyl)ethane-sulfonohydrazide]: the EC50 was found to be 77 nM.
As for `CN(NC(=O)CS(=O)(=O)NN(C)C(=S)c1csc2ccccc12)C(=S)c1ccccc1` [Compound 59], a half-maximal effect (EC50) was put at 129 nM.
The compound `CN(NS(=O)(=O)CC(=O)NN1CCCCC1=S)C(=S)c1ccccc1` [Compound 66, 2-(2-methyl-2-(phenylcarbonothioyl)hydrazinyl-sulfonyl)-N′-(2-thioxopiperidin-1-yl)acetamide] came in with a concentration for a half-maximal effect (EC50) of 48 nM.
With `CCN(CC)C(=S)N(C)NS(=O)(=O)CC(=O)NN(C)C(=S)c1ccccc1` [Compound 68, N,N-diethyl-1-methyl-2-(2-(2-methyl-2-(phenylcarbonothioyl)hydrazinyl)-2-oxoethylsulfonyl)hydrazine-carbothioamide] the figure was 63 nM.
`CCN(CC)C(=S)N(C)NC(=O)CS(=O)(=O)NN(C)C(=S)c1ccccc1` [Compound 69, N,N′-diethyl-1-methyl-2-(2-(2-methyl-2-(phenylcarbonothioyl)hydrazinyl-sulfonyl)acetyl)hydrazine-carbothioamide] showed a concentration for a half-maximal effect (EC50) of 85 nM.
In turn, `CCN(CC)C(=S)N(C)NS(=O)(=O)CC(=O)NN(C)C(=S)c1cnccn1` [Compound 70, N,N′-diethyl-1-methyl-2-(2-(2-methyl-2-(pyrazine-2-carbonothioyl)hydrazinyl)-2-oxoethylsulfonyl)hydrazine-carbothioamide] came in with an EC50 of 127 nM.
Regarding `CN(NC(=O)CS(=O)(=O)NN(C)C(=S)C1CC1)C(=S)c1cnco1` [Compound 74, N′-(cyclopropanecarbonothioyl)-N′-methyl-2-(2-methyl-2-(oxazole-5-carbonothioyl)hydrazinyl)-2-oxoethanesulfonohydrazide], a half-maximal effect (EC50) was put at 301 nM.
The compound `CCCCN(NS(=O)(=O)CC(=O)NN(C)C(=S)c1ccccc1)C(=S)c1ccccc1` [Compound 75, N′-butyl-2-(2-methyl-2-(phenylcarbonothioyl)hydrazinyl)-2-oxo-N′-(phenylcarbonothioyl) ethanesulfonohydrazide] showed an EC50 of 810 nM.
In turn, `CN(NS(=O)(=O)CC(=O)NN(C)C(=S)C1CC1)C(=S)c1cncs1` [Compound 76, 2-(2-(cyclopropanecarbonothioyl)-2-methylhydrazinyl)-N′-methyl-2-oxo-N′-(thiazole-5-carbonothioyl)-ethanesulfonohydrazide] showed an EC50 of 1180 nM.
`CN(NS(=O)(=O)CC(=O)NN(C)C(=S)C1CC1)C(=S)c1cnco1` [Compound 77, 2-(2-(cyclopropanecarbonothioyl)-2-methylhydrazinyl)-N′-methyl-N′-(oxazole-5-carbonothioyl)-2-oxoethanesulfonohydrazide] gave a 50% effective concentration (EC50) of 967 nM.
On to `CN(NC(=O)CS(=O)(=O)NN(C)C(=S)c1ccccc1F)C(=S)c1ccccc1` [Compound 80, N′-(2-fluorophenylcarbonothioyl)-N′-methyl-2-(2-methyl-2-(phenylcarbonothioyl)hydrazinyl)-2-oxoethanesulfonohydrazide], for which the response was half-maximal at 139 nM (EC50).
In turn, `CN(NS(=O)(=O)CC(=O)NN(C)C(=S)c1ccccc1C(F)(F)F)C(=S)c1ccccc1` [Compound 81, N′-methyl-2-(2-methyl-2-(2-(trifluoromethyl)phenylcarbono-thioyl)hydrazinyl)-2-oxo-N′-(phenylcarbonothioyl)ethane-sulfonohydrazide] yielded an EC50 of 354 nM.
Take `CN(NS(=O)(=O)CC(=O)NN(C)C(=S)c1ccccc1F)C(=S)c1ccccc1` [Compound 82, 2-(2-(2-fluorophenylcarbonothioyl)-2-methylhydrazinyl)-N′-methyl-2-oxo-N′-(phenylcarbonothioyl)ethane-sulfonohydrazide]: the midpoint of the response, the EC50, lay at 173 nM.
`CN(NC(=O)CS(=O)(=O)NN(C)C(=S)C1CC1)C(=S)c1cccc(C(F)(F)F)n1` [Compound 84, N′-(cyclopropanecarbonothioyl)-N′-methyl-2-(2-methyl-2-(6-(trifluoromethyl)pyridine-2-carbonothioyl)hydrazinyl)-2-oxoethanesulfonohydrazide] gave an EC50 of 144 nM.
Compound `COCC(=S)N(C)NC(=O)CS(=O)(=O)NN(C)C(=S)c1ccccc1` [Compound 85, 2-(2-(2-methoxyethanethioyl)-2-methylhydrazinyl)-N′-methyl-2-oxo-N′-(phenylcarbonothioyl)ethane-sulfonohydrazide] displayed an EC50 of 60 nM.
`CC(=S)N(C)NC(=O)CS(=O)(=O)NN(C)C(=S)c1ccccc1` [Compound 86, 2-(2-ethanethioyl-2-methylhydrazinyl)-N′-methyl-2-oxo-N′-(phenylcarbonothioyl)ethane-sulfonohydrazide] had an EC50 of 21 nM.
`CN(NC(=O)C(=CN)S(=O)(=O)NN(C)C(=S)C1CC1)C(=S)C1CC1` [Compound 87, 1-amino-N′-(cyclopropanecarbonothioyl)-3-(2-(cyclopropanecarbonothioyl)-2-methyl-hydrazinyl)-N′-methyl-3-oxoprop-1-ene-2-sulfonohydrazide] gave an EC50 of 111 nM.
The compound `CN(C)C=C(C(=O)NN(C)C(=S)C1CC1)S(=O)(=O)NN(C)C(=S)C1CC1` [Compound 88, N′-(cyclopropanecarbonothioyl)-3-(2-(cyclopropanecarbonothioyl)-2-methylhydrazinyl)-1-(dimethylamino)-N′-methyl-3-oxoprop-1-ene-2-sulfonohydrazide] registered an EC50 of 209 nM.
For `CNC=C(C(=O)NN(C)C(=S)C1CC1)S(=O)(=O)NN(C)C(=S)C1CC1` [Compound 89, N′-(cyclopropanecarbonothioyl)-3-(2-(cyclopropanecarbonothioyl)-2-methylhydrazinyl)-N′-methyl-1-(methylamino)-3-oxoprop-1-ene-2-sulfonohydrazide], the midpoint of the response, the EC50, lay at 201 nM.
Turning to `CN(NC(=O)C(=CNC1CC1)S(=O)(=O)NN(C)C(=S)C1CC1)C(=S)C1CC1` [Compound 90, N′-(cyclopropanecarbonothioyl)-3-(2-(cyclopropanecarbonothioyl)-2-methylhydrazinyl)-1-(cyclopropylamino)-N′-methyl-3-oxoprop-1-ene-2-sulfonohydrazide], the EC50 came to 227 nM.
Regarding `CC(C)NC=C(C(=O)NN(C)C(=S)C1CC1)S(=O)(=O)NN(C)C(=S)C1CC1` [Compound 91, N′-(cyclopropanecarbonothioyl)-3-(2-(cyclopropanecarbonothioyl)-2-methylhydrazinyl)-1-(isopropylamino)-N′-methyl-3-oxoprop-1-ene-2-sulfonohydrazide], the EC50 worked out at 229 nM.
